The text below walks through data of US11992560B2, “Electrospun fibers for a local release of an anti-inflammatory drug and a promyelinating drug” (ALMA MATER STUDIORUM—UNIVERSITÀ DI BOLOGNA, priority 2018, dated 2024).

The assay deals with LPS stimulated RAW 264.7 cells. Put plainly: In vitro efficacy: gene expression (qPCR) in LPS stimulated RAW cells treated with conditioned medium. Format: cell-based, murine. Particulars: conditioned medium 24 h, LPS 500 ng/ml; respect to sc LPS or ibsc. As for the experimental part: The murine macrophage cell line RAW 264.7 was purchased from the American Type Culture Collection (ATCC® TIB-71™). Cells were grown at 37° C. in DMEM high glucose medium (Thermo Fisher Scientific) supplemented with 10% heat-inactivated fetal bovine serum (FBS—Thermo Fisher Scientific), 1% penicillin/streptomycin (100 U ml-1/100 μg ml-1) (Thermo Fisher Scientific), in a humidified incubator of 5% CO2. When 70-80% confluency was reached, cells were detached mechanically with the scraper and subcultured in 75 cm2 flasks.
In order to evaluate the bioactivity of ibuprofen and T3 released from electrospun PLLA fibres conditioned medium was prepared ad described below. […] Three samples/group were analysed.
At the end of the treatments total RNA isolation was performed with the RNeasy Micro kit (Qiagen) following the manufacturer's instructions. Total RNA was eluted in RNase-free water and concentration estimated through absorbance values at 260, 280 and 320 nm (Nanodrop 2000 spectrophotometer, Thermo Scientific). […] Semi-quantitative real-time PCR was performed using the CFX96 real-time PCR system (Bio-Rad). […] Relative quantification of the target genes expression was calculated using the comparative threshold method 2^(—ΔΔCT). […]

Structures are written as SMILES.

For `CC(C)Cc1ccc(C(C)C(=O)O)cc1` (stereo not shown) [SC+IBU, Ibuprofen], the “TNFα mRNA level (in words)” value is listed as “comparable”.
